The values below come from ChEMBL document CHEMBL1201862, “PubChem BioAssay data set” (2004).

Calls of active or inactive are those of the source.

The subject of one data set is Escherichia coli. The data set can be described thus: microbe, parasite or virus in culture.
For data set [1], the target named is T1, Low molecular weight phosphotyrosine protein phosphatase (Homo sapiens, UniProt P24666).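 Further: Dose-response confirmation assay measuring inhibition of LMPTP enzyme activity by fluorescence intensity read-out.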
T1 sequence (P24666 whole entry): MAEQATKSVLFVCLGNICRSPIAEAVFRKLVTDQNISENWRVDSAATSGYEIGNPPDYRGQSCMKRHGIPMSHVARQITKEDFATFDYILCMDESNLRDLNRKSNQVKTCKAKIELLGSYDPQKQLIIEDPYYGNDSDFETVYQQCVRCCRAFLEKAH
The format is functional. As to conditions: read-out: IC50_Mean.

For the next data set, the target named is T2, Cytochrome P450 1A2 (Homo sapiens, UniProt P05177).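 Further: PubChem cytochrome P450 panel assay, CYP1A2 panel member.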
T2 sequence (P05177 whole entry): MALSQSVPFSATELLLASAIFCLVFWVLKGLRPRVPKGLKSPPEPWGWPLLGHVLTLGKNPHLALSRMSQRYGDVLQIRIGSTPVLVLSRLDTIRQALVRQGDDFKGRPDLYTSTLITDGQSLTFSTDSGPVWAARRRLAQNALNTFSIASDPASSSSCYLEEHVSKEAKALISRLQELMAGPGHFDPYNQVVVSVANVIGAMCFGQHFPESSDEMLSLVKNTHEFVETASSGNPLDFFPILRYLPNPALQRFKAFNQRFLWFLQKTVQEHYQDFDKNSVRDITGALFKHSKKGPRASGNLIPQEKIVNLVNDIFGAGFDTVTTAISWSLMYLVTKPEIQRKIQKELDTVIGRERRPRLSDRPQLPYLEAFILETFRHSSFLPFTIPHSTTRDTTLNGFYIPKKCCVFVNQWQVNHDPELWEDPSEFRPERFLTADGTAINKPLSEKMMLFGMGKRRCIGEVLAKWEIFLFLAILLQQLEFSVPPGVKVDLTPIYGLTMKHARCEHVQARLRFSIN

Another data set has as its target Cytochrome P450 3A4 (Homo sapiens, UniProt P08684).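 Further: CYP3A4 tested as one member of a cytochrome P450 panel screen.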
The next data set relates to INS1. The data set can be described thus: beta cell apoptosis inhibitors, cytokine rescue, dose response, luminescence, retest (AID 449756).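 Further: cell death triggered by IL-1 beta plus TNF-alpha plus IFN-gamma mixture; protective hits raise ATP signal compared with cytokine alone wells.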 As to conditions: Rattus norvegicus. It counts as functional, cell-based.
The nature of data set [2]: insulin promoter down-regulators in MIN6 cells, imaging, high-content screening, mouse beta cells (AID 1628). The format is functional.
The target of another data set is T3, Streptokinase A (Streptococcus pyogenes serotype M1, UniProt P10520).
T3 sequence (P10520 whole entry): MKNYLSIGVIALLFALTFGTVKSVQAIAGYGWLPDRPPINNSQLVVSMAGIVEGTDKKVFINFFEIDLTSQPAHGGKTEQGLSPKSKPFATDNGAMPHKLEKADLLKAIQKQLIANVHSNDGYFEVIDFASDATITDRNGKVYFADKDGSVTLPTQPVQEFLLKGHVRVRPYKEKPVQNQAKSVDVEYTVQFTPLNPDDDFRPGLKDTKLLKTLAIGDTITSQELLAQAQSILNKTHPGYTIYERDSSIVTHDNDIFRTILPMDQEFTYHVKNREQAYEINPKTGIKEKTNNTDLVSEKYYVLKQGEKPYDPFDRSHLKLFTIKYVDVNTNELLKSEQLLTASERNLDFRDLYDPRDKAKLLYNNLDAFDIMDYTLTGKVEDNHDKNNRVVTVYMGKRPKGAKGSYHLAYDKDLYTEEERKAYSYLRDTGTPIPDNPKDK
The data set can be described thus: S. pyogenes streptokinase expression inhibitors, potency, dose response, plasminogen activation absorbance, OD405 (AID 1914).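 Further: secreted streptokinase activity via plasminogen activation per viability signal from cell pellet.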 The format is functional, Streptococcus pyogenes M1 GAS.

Another data set has as its system Streptococcus. The data set can be described thus: Group A Streptococcus viability loss, dose response, counter-screen for streptokinase expression inhibitor project, luminescence, BacTiterGlo (AID 1915).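 Further: potency for reduction of bacterial viability or growth.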 The format is functional, organism-based. A general note: A counterscreen serves to expose hits that act by an unwanted route or on another target.
Data set [3] can be described thus: cytotoxicity in MIN6 insulinoma cells, dose response, cytotoxicity control, cell-based, mouse insulinoma (AID 2122).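 Further: confirmatory high-throughput counterscreen run to flag cytotoxic compounds; mouse MIN-6 beta cells carrying an insulin promoter eGFP reporter.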 It counts as functional.
The nature of data set [4]: Shn3 3'UTR reporter inhibitors, dose response, cell-based, Clone20 osteoblasts, firefly luciferase, cherry-picked (AID 624132).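 Further: firefly luciferase luminescence from reporter carrying the Shn3 3'UTR in osteoblasts.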 It counts as functional.
For data set [5], the system named is Vero. The data set is described as follows: cells. The format is functional. To be noted: Chlorocebus sabaeus.
Data set [6] deals with Streptococcus sp. 'group A'. The data set can be described thus: growth inhibition of control SK(-) GAS strain, dose response, counter-screen for streptokinase expression inhibitor project, luminescence, kanamycin, BacTiterGlo, confirmation (AID 1900). The format is functional, organism-based.
The nature of data set [7]: control 3'UTR Renilla luciferase suppression, dose response, counter-screen for Shn3 inhibitor project, cell-based, Clone20-Shn3RL, cherry-picked (AID 624133). It counts as functional.
Data set [8] can be described thus: HepG2 cell cytotoxicity, dose response, cytotoxicity control for Shn3 inhibitor project, CellTiter-Glo, cherry-picked (AID 624134). The format is functional, cell-based. (In ATP-based viability assays light output follows the ATP content of the culture.)
Data set [9] can be described thus: HEp-2 cell cytotoxicity, dose response, cytotoxicity control for RSV inhibitor project, HTS (AID 2410). The format is functional. As to conditions: human respiratory syncytial virus.
Data set [10] deals with Vero. The data set can be described thus: cells. The format is functional, cell-based. As to conditions: Chlorocebus sabaeus.
The next data set addresses Cytochrome P450 2D6 (Homo sapiens, UniProt P10635).
Data set [11] concerns the target T4, Mannose-6-phosphate isomerase (Homo sapiens, UniProt P34949).
T4 sequence (P34949 whole entry): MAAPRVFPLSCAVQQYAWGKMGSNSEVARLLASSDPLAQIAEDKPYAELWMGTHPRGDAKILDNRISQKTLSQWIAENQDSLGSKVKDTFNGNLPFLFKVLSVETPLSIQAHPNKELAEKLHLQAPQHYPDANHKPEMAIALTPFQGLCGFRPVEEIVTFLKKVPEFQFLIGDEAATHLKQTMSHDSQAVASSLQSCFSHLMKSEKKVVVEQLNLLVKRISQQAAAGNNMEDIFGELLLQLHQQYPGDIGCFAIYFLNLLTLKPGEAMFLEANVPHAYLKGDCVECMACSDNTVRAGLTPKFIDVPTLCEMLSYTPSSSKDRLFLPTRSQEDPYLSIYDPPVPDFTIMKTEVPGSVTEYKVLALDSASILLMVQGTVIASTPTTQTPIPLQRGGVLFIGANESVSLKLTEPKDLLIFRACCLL
The data set is described as follows: PMI enzyme inhibitors, confirmation, biochemical, fluorescence intensity (AID 1535).

Data set [12] addresses T5, Phosphoethanolamine/phosphocholine phosphatase (Homo sapiens, UniProt Q8TCT1).
T5 sequence (Q8TCT1 whole entry): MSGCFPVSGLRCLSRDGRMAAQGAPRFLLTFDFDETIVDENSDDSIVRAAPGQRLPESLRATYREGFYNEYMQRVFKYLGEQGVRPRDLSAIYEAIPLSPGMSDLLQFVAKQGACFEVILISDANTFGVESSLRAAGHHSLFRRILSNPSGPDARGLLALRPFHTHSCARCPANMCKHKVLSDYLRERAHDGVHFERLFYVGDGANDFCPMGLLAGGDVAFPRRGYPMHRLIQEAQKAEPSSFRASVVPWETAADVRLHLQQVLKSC
The data set can be described thus: SAR assay for compounds that inhibit PHOSPHO1. [Related pubchem assays (depositor defined):AID1545, AID1565, AID1574].

In a further data set the target is T6, Phosphomannomutase 2 (Homo sapiens, UniProt O15305).
T6 sequence (O15305 whole entry): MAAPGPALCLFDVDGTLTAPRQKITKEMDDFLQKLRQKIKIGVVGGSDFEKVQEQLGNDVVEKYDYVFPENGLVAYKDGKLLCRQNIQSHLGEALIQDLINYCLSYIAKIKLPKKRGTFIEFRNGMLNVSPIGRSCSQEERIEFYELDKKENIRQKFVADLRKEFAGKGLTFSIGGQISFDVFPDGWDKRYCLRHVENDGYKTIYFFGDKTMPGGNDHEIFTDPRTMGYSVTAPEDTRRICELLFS
The data set can be described thus: Counter screen SAR assay for PMM2 inhibitors via a fluorescence intensity assay. [Related pubchem assays (depositor defined):AID1545, AID1574].

The next data set deals with T7, CAAX prenyl protease 2 (Homo sapiens, UniProt Q9Y256).
T7 sequence (Q9Y256 whole entry): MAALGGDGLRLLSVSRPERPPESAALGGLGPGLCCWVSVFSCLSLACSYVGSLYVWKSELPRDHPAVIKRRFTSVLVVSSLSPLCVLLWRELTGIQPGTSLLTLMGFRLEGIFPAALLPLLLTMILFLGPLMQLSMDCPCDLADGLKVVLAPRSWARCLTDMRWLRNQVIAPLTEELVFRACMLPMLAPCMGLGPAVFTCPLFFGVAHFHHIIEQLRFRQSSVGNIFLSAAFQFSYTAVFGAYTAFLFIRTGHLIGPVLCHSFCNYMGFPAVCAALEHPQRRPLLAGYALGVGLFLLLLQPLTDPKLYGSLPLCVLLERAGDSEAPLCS
The data set can be described thus: human Rce1 protease inhibitors, dose response, biochemical, yeast membranes, quenched-peptide fluorescence, cherry-pick (AID 588849).

The nature of data set [13]: Luminescence Cell-Based Dose Response HTS to Identify Activators of Luciferase Translation or Activity in H4 […] Cells. [Related pubchem assays: 1829 (Project Summary), 1814 (Primary HTS)]. It counts as functional.
Data set [14] can be described thus: Luminescence Cell-Based Dose Confirmation HTS to Identify Activators of 5'UTR Stem-Loop Driven Alpha-Synuclein mRNA Translation in H4 Neuroglioblastoma Cells. [Related pubchem assays: 1829 (Project Summary), 1814 (Primary HTS)]. The format is functional.
A further data set has as its system H4. The data set can be described thus: Luminescence Cell-Based Dose Response HTS to Identify Activators of 5'UTR Stem-Loop Driven Prion Protein mRNA Translation in H4 Neuroglioblastoma Cells. [Related pubchem assays: 1829 (Project Summary), 1814 (Primary HTS)]. To be noted: Homo sapiens. The format is functional.

Sequence of Cytochrome P450 3A4 (P08684 whole entry): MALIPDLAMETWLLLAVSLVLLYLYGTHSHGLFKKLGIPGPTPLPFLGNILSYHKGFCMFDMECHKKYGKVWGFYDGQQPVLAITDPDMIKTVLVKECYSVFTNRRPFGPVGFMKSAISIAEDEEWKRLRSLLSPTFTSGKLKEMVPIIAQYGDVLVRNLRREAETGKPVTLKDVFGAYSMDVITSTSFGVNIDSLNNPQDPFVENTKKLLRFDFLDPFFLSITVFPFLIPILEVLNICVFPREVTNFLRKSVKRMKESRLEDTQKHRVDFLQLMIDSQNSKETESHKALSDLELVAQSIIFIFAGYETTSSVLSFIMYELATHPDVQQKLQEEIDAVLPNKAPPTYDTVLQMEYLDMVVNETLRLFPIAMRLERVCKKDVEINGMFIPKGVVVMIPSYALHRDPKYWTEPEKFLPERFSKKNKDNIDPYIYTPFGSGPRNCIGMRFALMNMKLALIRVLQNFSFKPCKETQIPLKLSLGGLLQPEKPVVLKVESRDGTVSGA
Sequence of Cytochrome P450 2D6 (P10635 whole entry): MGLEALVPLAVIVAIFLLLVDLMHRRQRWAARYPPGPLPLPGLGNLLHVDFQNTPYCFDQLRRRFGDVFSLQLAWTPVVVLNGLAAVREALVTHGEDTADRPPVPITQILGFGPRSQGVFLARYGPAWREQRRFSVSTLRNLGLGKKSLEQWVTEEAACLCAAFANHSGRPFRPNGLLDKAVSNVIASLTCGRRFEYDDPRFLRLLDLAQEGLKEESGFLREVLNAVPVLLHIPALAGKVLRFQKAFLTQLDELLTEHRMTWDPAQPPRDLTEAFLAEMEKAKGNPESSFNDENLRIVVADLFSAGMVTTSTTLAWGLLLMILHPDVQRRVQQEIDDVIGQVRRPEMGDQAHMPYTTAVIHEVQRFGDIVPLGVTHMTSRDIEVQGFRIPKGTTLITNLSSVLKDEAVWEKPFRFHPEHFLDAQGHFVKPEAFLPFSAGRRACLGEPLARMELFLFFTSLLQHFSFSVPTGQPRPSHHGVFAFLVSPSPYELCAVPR

By AC50 is commonly meant the concentration giving half of the maximal activity seen. Take `CCn1cc(C(=O)O)c(=O)c2cc(F)c(N3CCN(C(=S)NC(=O)c4ccc(OC)cc4)CC3)cc21`: in the data set on Escherichia coli, the AC50 is 8.97 µM (active). Further, the IC50 in data set [1] is 7.26 µM (active).

As for `O=C(c1cnccn1)N1CCC2(CC1)CCN(C(c1ccccc1)c1ccccc1)CC2`, the AC50 at Cytochrome P450 1A2 is 10 µM (inconclusive); at Cytochrome P450 3A4, “inconclusive”.

With `Cn1cccc1C(=O)N1CCC2(CCN(Cc3nccs3)CC2)CC1`, on Cytochrome P450 3A4, the AC50 entry is recorded as “inconclusive”.

Take `Cc1ccn(C(=O)c2ccc(NC(=O)C3CC3)cc2)n1`: in the data set with Escherichia coli, the AC50 is 22.3 µM (active).

For orientation: EC50 means the concentration giving half of the maximal effect. The CC50 is the concentration that lowers cell viability or growth by half. Turning to `CC1=NN(c2nc3ccccc3[nH]2)C(=O)C1Cc1ccccc1` (centres undefined), the AC50 with INS1 was 1.43 µM (active); in [4], 4.11 µM (active); in data set [7] it was 2.6 µM (active); in data set [8] it was > 70 µM (inactive). The values for the IC50 in [2] and in [3] were 1.53 µM (active) and 1.43 µM (active), respectively. The results for the EC50 (on Streptokinase A; in the data set on Streptococcus; in [6]) were > 150 µM (not active), > 150 µM (not active) and 1.17 µM (active), respectively. Also, in the data set on Vero [5], the CC50 is 2.92 µM (active).

For the compound `Cc1cccc(NC(=O)CSc2nc3ccccc3nc2N2CCCCC2)c1`, the results for the CC50 (with Vero [5]; in data set [9]) were > 25 µM (active) and 10.3 µM (active), respectively. Further, the IC50 in the data set on Vero [10] was 9.16 µM (active); in “cells”, 9 µM (active).

On to `O=C(Oc1ccccc1)N1CCC2(CCN(Cc3ccccc3)CC2)CC1`, for which the AC50 is 39.8 µM (inconclusive) at Cytochrome P450 2D6 and “inconclusive” on Cytochrome P450 3A4.

As for `CC(=O)/C(C#N)=C1\NC(=O)C(Cc2ccccc2)S1` (centres undefined), in [9], the half-maximal cytotoxic concentration (CC50) is 14.4 µM (active). Also, the values for the IC50 in the data set on Vero [10] and in the data set “cells” were 9.17 µM (active) and 5.09 µM (active), respectively.

In the case of `Cc1cc(C(=O)CSc2nc3cc(Cl)ccc3[nH]2)c(C)n1CC1CCCO1` (centres undefined), the values for the IC50 in [2] and in [3] were 2.74 µM (active) and 2.99 µM (active), respectively.

Turning to `O=c1c2ccccc2sn1-c1ccc(S(=O)(=O)N2CCOCC2)cc1`, the IC50 was > 50 µM (inactive) in data set [11], 0.545 µM (active) in [12] and > 100 µM (inactive) at Phosphomannomutase 2.

With `[N-]=[N+]=Nc1cc([N+](=O)[O-])cc2sn(-c3ccccc3)c(=O)c12`, the values for the IC50 (in data set [11]; in [12]; at Phosphomannomutase 2) were > 50 µM (inactive), 0.498 µM (active) and 96.4 µM (active), respectively.

Regarding `COC(C/C=C/[C@@H](O)[C@H](C)OCc1ccccc1)OC`, the AC50 at CAAX prenyl protease 2 is 16.5 µM (active).

With `NS(=O)(=O)c1ccc(N/N=C/c2cn(-c3ccccc3)nc2-c2ccccc2)c([N+](=O)[O-])c1`, the IC50 in data set [2] was 1.05 µM (active); in data set [3], 3.46 µM (active). The results for the EC50 (in data set [13]; in data set [14]; in the data set on H4) were > 60 µM (not active), > 120 µM (not active) and > 120 µM (not active), respectively.
